Experimental data as given in ChEMBL document CHEMBL1201862, “PubChem BioAssay data set” (2004).
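How tested: cells in 96-well plates exposed to compound for 48 hours at five concentrations. At the GI50, growth is halved.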 Calls of active or inactive are those of the source. No stated cut-off is given here; in the data, active = GI50 up to about 1.1 µM and inactive = higher.

Legend:
Experiment in all cases: NCI tumour cell line growth inhibition, 48 h
ACHN = system: ACHN
SNB-19 = system: SNB-19
A549 = system: A549
Hs-578T = system: Hs-578T
M14 = system: M14
OVCAR-3 = system: OVCAR-3
NCI-H460 = system: NCI-H460
U-251 = system: U-251
NCI-H23 = system: NCI-H23
IGROV-1 = system: IGROV-1
RPMI-8226 = system: RPMI-8226
OVCAR-8 = system: OVCAR-8
SF-295 = system: SF-295
KM12 = system: KM12
Malme-3M = system: Malme-3M
PC-3 = system: PC-3
HL-60 = system: HL-60
OVCAR-4 = system: OVCAR-4
MCF7 = system: MCF7

Measured: GI50

CCOC(=O)C(=O)CC(=O)C1=C(c2ccccc2OC)CC(c2cccs2)=CC1=O
inactive: ACHN > 100 µM | SNB-19 > 100 µM | A549 43.5 µM | Hs-578T 2.75 µM | M14 26.1 µM | OVCAR-3 41.9 µM | NCI-H460 48.5 µM | U-251 86.3 µM | NCI-H23 > 100 µM | IGROV-1 15.3 µM | RPMI-8226 65.8 µM | OVCAR-8 > 100 µM | SF-295 18.7 µM | KM12 34.3 µM | Malme-3M > 100 µM | PC-3 24 µM | HL-60 55 µM

CCOP(=O)(OCC)/C(=C\N1C(=O)CC(=O)NC1=S)C(=O)OC
inactive: ACHN > 100 µM | SNB-19 > 100 µM | A549 > 100 µM | OVCAR-4 > 100 µM | M14 > 100 µM | OVCAR-3 > 100 µM | NCI-H460 > 100 µM | U-251 > 100 µM | NCI-H23 > 100 µM | IGROV-1 > 100 µM | MCF7 > 100 µM | OVCAR-8 > 100 µM | SF-295 > 100 µM | KM12 > 100 µM | HL-60 > 100 µM

O=C(NC12CC3CC(CC(C3)C1)C2)C(=O)c1c[nH]c2ccccc12
inactive: ACHN 15.5 µM | SNB-19 17.9 µM | A549 16.3 µM | OVCAR-4 16.3 µM | M14 14 µM | OVCAR-3 17 µM | NCI-H460 12.1 µM | U-251 13.5 µM | NCI-H23 14.7 µM | IGROV-1 15.8 µM | RPMI-8226 12.2 µM | SF-295 10.2 µM | KM12 13.9 µM | Malme-3M 15 µM | HL-60 15.5 µM

Nc1nc2ccc(OCC(O)CN3CCCCC3)cc2[n+]([O-])n1 (stereo not drawn)
inactive: ACHN > 100 µM | SNB-19 > 100 µM | A549 > 100 µM | OVCAR-4 > 100 µM | M14 > 100 µM | OVCAR-3 > 100 µM | NCI-H460 > 100 µM | U-251 > 100 µM | NCI-H23 > 100 µM | MCF7 > 100 µM | RPMI-8226 > 100 µM | OVCAR-8 > 100 µM | SF-295 > 100 µM | KM12 > 100 µM | Malme-3M > 100 µM | PC-3 > 100 µM | HL-60 > 100 µM

CC(=O)O[C@H]1CC[C@@]2(C)C(=CC[C@@H]3[C@@H]2CC[C@]2(C)NC(=O)/C(=C\c4ccccc4)C[C@@H]32)C1
inactive: ACHN 21.9 µM | SNB-19 16.1 µM | A549 17.1 µM | OVCAR-4 16.5 µM | M14 16.1 µM | OVCAR-3 12.9 µM | NCI-H460 26.9 µM | U-251 18.1 µM | NCI-H23 15.9 µM | IGROV-1 21.4 µM | MCF7 14.9 µM | RPMI-8226 12.3 µM | OVCAR-8 20.5 µM | SF-295 17.8 µM | KM12 18.1 µM | Malme-3M 18 µM | PC-3 18.4 µM

Cc1cccc2c1Oc1cc(Cl)ccc1C2NC(=O)CCN1CCCCC1 (stereo not drawn)
inactive: SNB-19 17.5 µM | A549 18.7 µM | OVCAR-4 15.3 µM | M14 17.7 µM | OVCAR-3 > 10 µM | NCI-H460 16.5 µM | U-251 15.6 µM | NCI-H23 19.1 µM | IGROV-1 > 10 µM | MCF7 17.5 µM | RPMI-8226 25 µM | OVCAR-8 16.3 µM | SF-295 18.8 µM | KM12 16.3 µM | PC-3 14.6 µM | HL-60 15.7 µM

CC1=NCC[N+]1(CCc1ccccc1)Cc1ccccc1 (stereo not drawn)
inactive: ACHN > 100 µM | SNB-19 71.9 µM | A549 13.4 µM | OVCAR-4 37.2 µM | Hs-578T 16 µM | M14 50.5 µM | OVCAR-3 5.71 µM | NCI-H460 34.8 µM | U-251 29.3 µM | NCI-H23 19.8 µM | IGROV-1 17.3 µM | MCF7 47.9 µM | RPMI-8226 13.7 µM | OVCAR-8 37.3 µM | SF-295 > 100 µM | KM12 47.2 µM | Malme-3M 20.4 µM | HL-60 16.6 µM

Nc1ncnc2c1nnn2C1CCC(CP(=O)(O)O)C1 (stereo not drawn)
inactive: ACHN > 100 µM | SNB-19 > 100 µM | A549 > 100 µM | OVCAR-4 > 100 µM | M14 > 100 µM | OVCAR-3 > 100 µM | NCI-H460 > 100 µM | U-251 > 100 µM | NCI-H23 > 100 µM | IGROV-1 > 100 µM | MCF7 > 100 µM | RPMI-8226 > 100 µM | OVCAR-8 > 100 µM | SF-295 > 100 µM | KM12 > 100 µM | Malme-3M > 100 µM | PC-3 > 100 µM | HL-60 > 100 µM

N/N=C(/C(=O)Nc1cccc(Cl)c1)C(C(=O)c1ccc(O)cc1O)C1OC(=O)c2ccccc21 (stereo not drawn)
inactive: ACHN > 100 µM | SNB-19 68.2 µM | A549 > 100 µM | OVCAR-4 > 100 µM | M14 > 100 µM | OVCAR-3 > 100 µM | NCI-H460 52.2 µM | U-251 46.9 µM | NCI-H23 65.5 µM | IGROV-1 > 100 µM | RPMI-8226 90.6 µM | OVCAR-8 > 100 µM | SF-295 85.9 µM | KM12 > 100 µM | Malme-3M > 100 µM | HL-60 > 100 µM

N#CC(C(=O)c1cccnc1Cl)c1nc2cc(C(F)(F)F)ccc2s1 (stereo not drawn)
inactive: ACHN > 100 µM | SNB-19 77.3 µM | A549 > 100 µM | OVCAR-4 67 µM | M14 50.8 µM | OVCAR-3 > 100 µM | NCI-H460 59.6 µM | U-251 78.3 µM | NCI-H23 30.8 µM | IGROV-1 > 100 µM | RPMI-8226 41.6 µM | OVCAR-8 > 100 µM | SF-295 27.7 µM | KM12 58.9 µM | Malme-3M 37.1 µM

Nc1ccc(S(=O)(=O)Nc2nnc(S(N)(=O)=O)s2)cc1
inactive: ACHN > 100 µM | SNB-19 > 100 µM | A549 > 100 µM | OVCAR-4 > 100 µM | M14 > 100 µM | NCI-H460 > 100 µM | U-251 > 100 µM | NCI-H23 > 100 µM | MCF7 > 100 µM | RPMI-8226 > 100 µM | SF-295 > 100 µM | KM12 > 100 µM | Malme-3M > 100 µM | HL-60 > 100 µM

CSc1nncc(-c2cc3c(c(SC)n2)CCC3)n1
inactive: ACHN 53.6 µM | SNB-19 > 100 µM | A549 > 100 µM | OVCAR-4 48.1 µM | M14 > 100 µM | OVCAR-3 > 100 µM | U-251 25.9 µM | NCI-H23 > 100 µM | IGROV-1 2.4 µM | RPMI-8226 > 100 µM | OVCAR-8 24.4 µM | SF-295 > 100 µM | KM12 > 100 µM | PC-3 > 100 µM | HL-60 > 100 µM
